{
  "source": "paper PMC12396409",
  "about": "“Screening and hit evaluation of a microbial metabolite library against the pathogenic Plasmodium falciparum and Toxoplasma gondii parasites” (International Journal for Parasitology: Drugs and Drug …, 2025)",
  "key": {"[1]": {"system": "T. gondii RH strain (RH-Tub-eYFP) tachyzoites", "experiment": "microbe, parasite or virus in culture", "format": "cell-based, Toxoplasma gondii", "settings": "72 h; for percent parasite growth at 2 µg/mL: Toxoplasma gondii"}, "[2]": {"system": "P. falciparum 3D7 parasites", "experiment": "P. falciparum growth inhibition assay, 2-cycle (120 h treatment), delayed-death screen and dose-response", "format": "cell-based, Plasmodium falciparum", "settings": "for activity at 2 µg/mL: Plasmodium falciparum, 3D7, 120 h"}, "[3]": {"system": "P. falciparum 3D7 parasites", "experiment": "P. falciparum growth inhibition assay, 1-cycle (72 h treatment), SYBR DNA staining (library screen at 2 μg/mL and dose-response)", "format": "cell-based, Plasmodium falciparum", "settings": "for Mean: mean of both replicates, growth (% of control); for activity at 2 µg/mL: Plasmodium falciparum, 3D7, 72 h"}, "[4]": {"settings": "T. gondii, screen at 2 μg/mL, replicate 1"}, "[5]": {"settings": "T. gondii, screen at 2 μg/mL, replicate 2"}, "[6]": {"settings": "P. falciparum, 120 h, screen at 2 μg/mL, replicate 1"}, "[7]": {"settings": "P. falciparum, 120 h, screen at 2 μg/mL, replicate 2"}, "[8]": {"settings": "P. falciparum, 72 h, screen at 2 μg/mL, replicate 1"}, "[9]": {"settings": "P. falciparum, 72 h, screen at 2 μg/mL, replicate 2"}, "[10]": {"settings": "T. gondii, screen at 2 μg/mL, replicate 1, read-out: Tg_72h_%Growth_Rep1"}, "[11]": {"settings": "T. gondii, screen at 2 μg/mL, replicate 2, read-out: Tg_72h_%Growth_Rep2"}, "[12]": {"settings": "P. falciparum, 120 h, screen at 2 μg/mL, replicate 1, read-out: Pf_120h_%Growth_Rep1"}, "[13]": {"settings": "P. falciparum, 120 h, screen at 2 μg/mL, replicate 2, read-out: Pf_120h_%Growth_Rep2"}, "[14]": {"settings": "P. falciparum, 72 h, screen at 2 μg/mL, replicate 1, read-out: Pf_72h_%Growth_Rep1"}, "[15]": {"settings": "P. falciparum, 72 h, screen at 2 μg/mL, replicate 2, read-out: Pf_72h_%Growth_Rep2"}},
  "note": "Read-outs that look alike come from different tables or passages of the source.",
  "data": [
    {"smiles": "COc1c(C)c(OC(=O)c2c(C)c(C)c(OC(=O)c3c(C)cc(O)c(C)c3O)c(C)c2OC)c(C)c(C)c1C(=O)O", "note": "[Thielavin B]", "values": [
      {"measurement": "Tg_72h_%Growth_Rep1", "setting": "[1]; [4]", "value": 86.62, "unit": "%"},
      {"measurement": "Tg_72h_%Growth_Rep2", "setting": "[1]; [5]", "value": 101.22, "unit": "%"},
      {"measurement": "Pf_120h_%Growth_Rep1", "setting": "[2]; [6]", "value": 38.21, "unit": "%"},
      {"measurement": "Pf_120h_%Growth_Rep2", "setting": "[2]; [7]", "value": 6.65, "unit": "%"},
      {"measurement": "activity in the screen against P. falciparum", "setting": "[3]; 2 μg/mL, 72 h, active = ≥80 % growth inhibition", "value": "active"},
      {"measurement": "Pf_72h_%Growth_Rep1", "setting": "[3]; [8]", "value": 13.97, "unit": "%"},
      {"measurement": "Pf_72h_%Growth_Rep2", "setting": "[3]; [9]", "value": 7.85, "unit": "%"}
    ]},
    {"smiles": "Cc1cc(=O)c(O)cc2c1C[C@@H]1CC(C)(C)/C=C/C[C@@]3(C)Oc4cc(O)c(=O)cc(C)c4C[C@@H]3C[C@@H](O)[C@]1(C)O2", "note": "[Eupenifeldin]", "values": [
      {"measurement": "Tg_72h_%Growth_Rep1", "setting": "[1]; library screen at 2 μg/mL, % growth, replicate 1", "value": 1.55, "unit": "%"},
      {"measurement": "Tg_72h_%Growth_Rep2", "setting": "[1]; library screen at 2 μg/mL, % growth, replicate 2", "value": 1.71, "unit": "%"},
      {"measurement": "2) Growth (%) at 120 h", "setting": "[2]; P. falciparum, 2 μg/mL, 120 h", "value": 14.46, "unit": "%"},
      {"measurement": "3) Fold change (72 h/120 h)", "setting": "[2]; P. falciparum, growth at 72 h / growth at 120 h, 2 μg/mL", "value": 2.0},
      {"measurement": "Pf_120h_%Growth_Rep1", "setting": "[2]; library screen at 2 μg/mL, 120 h, % growth, replicate 1", "value": 3.95, "unit": "%"},
      {"measurement": "Pf_120h_%Growth_Rep2", "setting": "[2]; library screen at 2 μg/mL, 120 h, % growth, replicate 2", "value": 24.96, "unit": "%"},
      {"measurement": "1) Growth (%) at 72 h", "setting": "[3]; P. falciparum, 2 μg/mL, 72 h", "value": 28.81, "unit": "%"},
      {"measurement": "Mean", "setting": "[3]; P. falciparum, 72 h, 2 μg/mL", "value": 28.81},
      {"measurement": "Pf_72h_%Growth_Rep1", "setting": "[3]; library screen at 2 μg/mL, 72 h, % growth, replicate 1", "value": 0.51, "unit": "%"},
      {"measurement": "Pf_72h_%Growth_Rep2", "setting": "[3]; library screen at 2 μg/mL, 72 h, % growth, replicate 2", "value": 57.11, "unit": "%"}
    ]},
    {"smiles": "CC1=C[C@H](C)C[C@H](C)[C@H](Cc2cnco2)OC(=O)/C(C)=C\\[C@H](C)C[C@H](C)[C@H](Cc2cnco2)OC1=O", "note": "[Conglobatin]", "values": [
      {"measurement": "Tg_72h_%Growth_Rep1", "setting": "[1]; [4]", "value": 127.73, "unit": "%"},
      {"measurement": "Tg_72h_%Growth_Rep2", "setting": "[1]; [5]", "value": 88.01, "unit": "%"},
      {"measurement": "Pf_120h_%Growth_Rep1", "setting": "[2]; [6]", "value": 82.43, "unit": "%"},
      {"measurement": "Pf_120h_%Growth_Rep2", "setting": "[2]; [7]", "value": 72.72, "unit": "%"},
      {"measurement": "Mean", "setting": "[3]; P. falciparum, 72 h, 2 μg/mL", "value": 52.30},
      {"measurement": "Pf_72h_%Growth_Rep1", "setting": "[3]; [8]", "value": 86.29, "unit": "%"},
      {"measurement": "Pf_72h_%Growth_Rep2", "setting": "[3]; [9]", "value": 18.30, "unit": "%"}
    ]},
    {"smiles": "C[C@H]1O[C@@H]2CC(=O)O[C@@H]2C2=C1C(=O)c1c(O)cc3c(c1C2=O)[C@H]1C[C@@H](N(C)C)[C@H](O)[C@]3(C)O1", "note": "[Sch 38519]", "values": [
      {"measurement": "Tg_72h_%Growth_Rep1", "setting": "[1]; T. gondii, parasite screen 2 μg/mL, % growth, replicate 1", "value": 50.53, "unit": "%"},
      {"measurement": "Tg_72h_%Growth_Rep2", "setting": "[1]; T. gondii, parasite screen 2 μg/mL, % growth, replicate 2", "value": 29.49, "unit": "%"},
      {"measurement": "Pf_120h_%Growth_Rep1", "setting": "[2]; P. falciparum, 120 h, parasite screen 2 μg/mL, % growth, replicate 1", "value": 51.02, "unit": "%"},
      {"measurement": "Pf_120h_%Growth_Rep2", "setting": "[2]; P. falciparum, 120 h, parasite screen 2 μg/mL, % growth, replicate 2", "value": 51.53, "unit": "%"},
      {"measurement": "Pf_72h_%Growth_Rep1", "setting": "[3]; P. falciparum, 72 h, parasite screen 2 μg/mL, % growth, replicate 1", "value": 54.64, "unit": "%"},
      {"measurement": "Pf_72h_%Growth_Rep2", "setting": "[3]; P. falciparum, 72 h, parasite screen 2 μg/mL, % growth, replicate 2", "value": 23.72, "unit": "%"}
    ]},
    {"smiles": "C[C@H]1CCCC(=O)CCCCCc2cc(O)cc(O)c2C(=O)O1", "note": "[Zearalanone]", "values": [
      {"measurement": "percent parasite growth at 2 µg/mL", "setting": "[1]; [10]", "value": 97, "unit": "%"},
      {"measurement": "percent parasite growth at 2 µg/mL", "setting": "[1]; [11]", "value": 107, "unit": "%"},
      {"measurement": "activity at 2 µg/mL", "setting": "[2]; [12]", "value": 102, "unit": "%"},
      {"measurement": "activity at 2 µg/mL", "setting": "[2]; [13]", "value": 77.7, "unit": "%"},
      {"measurement": "activity at 2 µg/mL", "setting": "[3]; [14]", "value": 31.9, "unit": "%"},
      {"measurement": "activity at 2 µg/mL", "setting": "[3]; [15]", "value": 78.2, "unit": "%"}
    ]},
    {"smiles": "O=C1CCCC2C3CC(CN12)C1CCCCN1C3", "note": "(stereo not drawn) [BIA-L1951]", "values": [
      {"measurement": "Tg_72h_%Growth_Rep1", "setting": "[1]; T. gondii RH, library screen at 2 μg/mL, % growth, replicate 1", "value": 86.61, "unit": "%"},
      {"measurement": "Tg_72h_%Growth_Rep2", "setting": "[1]; T. gondii RH, library screen at 2 μg/mL, % growth, replicate 2", "value": 107.54, "unit": "%"},
      {"measurement": "Pf_120h_%Growth_Rep1", "setting": "[2]; P. falciparum 3D7, 120 h, library screen at 2 μg/mL, % growth, replicate 1", "value": 173.37, "unit": "%"},
      {"measurement": "Pf_120h_%Growth_Rep2", "setting": "[2]; P. falciparum 3D7, 120 h, library screen at 2 μg/mL, % growth, replicate 2", "value": 101.50, "unit": "%"},
      {"measurement": "Pf_72h_%Growth_Rep1", "setting": "[3]; P. falciparum 3D7, 72 h, library screen at 2 μg/mL, % growth, replicate 1", "value": 95.10, "unit": "%"},
      {"measurement": "Pf_72h_%Growth_Rep2", "setting": "[3]; P. falciparum 3D7, 72 h, library screen at 2 μg/mL, % growth, replicate 2", "value": 93.40, "unit": "%"}
    ]},
    {"smiles": "C[C@H]1CCC/C=C/[C@@H]2C[C@H](O)C[C@H]2[C@H](O)/C=C/C(=O)O1", "note": "[Brefeldin A]", "values": [
      {"measurement": "percent parasite growth at 2 µg/mL", "setting": "[1]; [10]", "value": -1.55, "unit": "%"},
      {"measurement": "percent parasite growth at 2 µg/mL", "setting": "[1]; [11]", "value": 0.61, "unit": "%"},
      {"measurement": "activity at 2 µg/mL", "setting": "[2]; [12]", "value": 5.53, "unit": "%"},
      {"measurement": "activity at 2 µg/mL", "setting": "[2]; [13]", "value": 2.87, "unit": "%"},
      {"measurement": "activity at 2 µg/mL", "setting": "[3]; [14]", "value": 4.33, "unit": "%"},
      {"measurement": "activity at 2 µg/mL", "setting": "[3]; [15]", "value": -0.69, "unit": "%"}
    ]},
    {"smiles": "O=C1Cc2ccccc2N1", "note": "[BIA-O1735]", "values": [
      {"measurement": "Tg_72h_%Growth_Rep1", "setting": "[1]; T. gondii, parasite screen at 2 μg/mL, % growth, replicate 1", "value": 124.39, "unit": "%"},
      {"measurement": "Tg_72h_%Growth_Rep2", "setting": "[1]; T. gondii, parasite screen at 2 μg/mL, % growth, replicate 2", "value": 90.71, "unit": "%"},
      {"measurement": "Pf_120h_%Growth_Rep1", "setting": "[2]; P. falciparum 3D7, 120 h, parasite screen at 2 μg/mL, % growth, replicate 1", "value": 73.62, "unit": "%"},
      {"measurement": "Pf_120h_%Growth_Rep2", "setting": "[2]; P. falciparum 3D7, 120 h, parasite screen at 2 μg/mL, % growth, replicate 2", "value": 127.66, "unit": "%"},
      {"measurement": "Pf_72h_%Growth_Rep1", "setting": "[3]; P. falciparum 3D7, 72 h, parasite screen at 2 μg/mL, % growth, replicate 1", "value": 82.92, "unit": "%"},
      {"measurement": "Pf_72h_%Growth_Rep2", "setting": "[3]; P. falciparum 3D7, 72 h, parasite screen at 2 μg/mL, % growth, replicate 2", "value": 80.95, "unit": "%"}
    ]},
    {"smiles": "CC(C)[C@@H]1NC(=O)[C@H](Cc2ccc(O)cc2)NC1=O", "note": "[Cyclo(L-Tyr-L-Val)]", "values": [
      {"measurement": "Tg_72h_%Growth_Rep1", "setting": "[1]; [4]", "value": 164.57, "unit": "%"},
      {"measurement": "Tg_72h_%Growth_Rep2", "setting": "[1]; [5]", "value": 103.47, "unit": "%"},
      {"measurement": "Pf_120h_%Growth_Rep1", "setting": "[2]; [6]", "value": 98.73, "unit": "%"},
      {"measurement": "Pf_120h_%Growth_Rep2", "setting": "[2]; [7]", "value": 89.51, "unit": "%"},
      {"measurement": "Pf_72h_%Growth_Rep1", "setting": "[3]; [8]", "value": 84.64, "unit": "%"},
      {"measurement": "Pf_72h_%Growth_Rep2", "setting": "[3]; [9]", "value": 82.94, "unit": "%"}
    ]}
  ]
}
